Test results published in patent US11013745B2, “Triazolopyrimidine, triazolopyridine compounds, and the composition thereof for treating PRC2-mediated diseases” (SHANGHAI INSTITUTE OF MATERIA MEDICA, CHINESE ACADEMY OF …, priority 2017, dated 2021).
Where two headings read alike, the source gives them in different places.

Columns and labels:
PRC2 enzyme = PRC2 enzyme (Homo sapiens (Human), UniProt O75530); assay: PRC2 enzyme activity, TR-FRET method; assay type: biochemical
Method: The TR-FRET method was used to measure the PRC2 enzyme activity. First, the enzyme was mixed with compounds at different concentrations and incubated for 30 min at room temperature. The biotin-labeled histone H3 peptide substrate and the cofactor S-adenosylmethionine (SAM) were added to initiate the enzymatic reaction. After reaction was performed at room temperature for 4 hour, Acceptor and Donor were added and incubated for half an hour. The multifunctional microplate reader EnVision (Perkin Elmer Inc.) was used to detect the fluorescence signal. Data were analyzed using GraphPad Prism 5.0 software, and IC50 values were obtained.

Karpas-422 cells = assay: Growth inhibition of Karpas-422 cells in a long term (11 days), CellTiter-Glo; assay type: cell-based, Human; settings: Homo sapiens, 264 h; Karpas-422, 11 days; read-out: Karpas-422 (11 days) IC50
Pfeiffer cells [1] = assay: Pfeiffer cell growth inhibition in a long term (11 days), CellTiter-Glo; assay type: cell-based, Human; settings: Homo sapiens, 264 h, 11 days, read-out: Experiment on Pfeiffer cell growth inhibition in a long term (11 days IC50)
Method: Pfeiffer cells in exponential growth phase were seeded in a 24-well plate with a cell density of 1*10E5 cells/mL. Cells were treated on the same day with the compounds at different concentrations. At day 4 and day 7 of compound treatment, fresh media and compounds were changed. After treated with the compounds for 11 days, cell viability was measured using CellTiter-Glo reagent (Promega Corporation). The data was analyzed using GraphPad Prism 5.0 software and GI50 values were obtained.

Pfeiffer cells [2] = assay: Growth inhibition of Pfeiffer cells in a long term (14 days), CellTiter-Glo; assay type: cell-based, Human; settings: Homo sapiens, 336 h, 14 days, read-out: Pfeiffer (14 days) IC50
Method: In a CO2 cell incubator (37° C., 5% CO2), Human diffuse large B-cell lymphoma (DLBCL) cell line, pfeiffer (obtained from ATCC, CRL-2632) were incubated with RPMI 1640 medium (Gibco, purchased from Life Technologies, 22400-089) containing 10% fetal bovine serum (Gibco, purchased from Life Technologies, 10099-141) and 1% antibiotics (penicillin and streptomycin, purchased from Life Technologies, 10378016). […] After seeding the cells, they were placed in a CO2 incubator and allowed to stand for 1 hour. In a 24-well plate containing cells, 2 μL of three-fold gradient of the compounds at 9 different concentrations or DMSO were added to each well, such that the final concentration of the compounds was 0.003-20 μM or 0.3-2000 nM, and the final concentration of DMSO was 0.2%. At day 4, day 7, and day 11 of compound treatment, the fresh medium and compounds were changed, and the cell density of the DMSO control well was diluted to 2*10E5 cells/mL. The cell dilution ratio for other compound wells was the same as that of the DMSO control well. Cell viability was determined by using CellTiter-Glo reagent (purchased from Promega Inc., G7572): cells treated with the compounds for 14 days were transferred to a white 384-well plate (OptiPlate-384, purchased from PerkinElmer, 6007299) at 40 μL/well, an equal volume of CellTiter-Glo reagent was further added. After incubating at room temperature for 10 min, the cold luminescence signal was detected with a multifunctional microplate reader EnVision (PerkinElmer) at a wavelength of 400 to 700 nm. Data were analyzed using GraphPad Prism 5.0 software, and IC50 values were obtained.

[3] = Liver microsomal stability (human); assay type: in vitro ADME
Method: (§1) 1. JANUS and temperature control device was turned on. After being initialized, the pipes were flushed until there was no air bubble in the pipes.
(§2) 2. Preparation of buffers used for the experiment
(§3) Preparation of Tris pH 7.4 buffer (0.1 M): 12.12 g of Tris was dissolved in 1000 mL of H2O, the resulting solution was adjusted to pH 7.4 with 2N HCl, aliquoted at 50 mL per tube, and stored at −20° C.
(§4) Preparation of H2O/0.1% BSA buffer: 200 μL of 25% BSA was added to 50 mL of H2O.
(§5) Preparation of VIVID stock solution: 1 mg of VIVID was dissolved in 1 mL of acetonitrile, aliquoted at 50 μL per tube, and stored at −20° C.
(§6) Preparation of MgCl2 solution (100 mM): 1.016 g of MgCl2 was dissolved in 50 mL Tris pH 7.4 buffer, and aliquoted at 1 mL per tube, and stored at −20° C.
(§7) Preparation of NADPH solution (10 mM): 355 mg of NADPH was dissolved in 42.6 mL of Tris pH 7.4 buffer, aliquoted at 1.8 mL per tube, and stored at −20° C.
(§8) Preparation of Blank control: 7.937 mL of Tris, 163 μL of RLM, 450 μL of MgCl2 solution, 450 μL of NADPH solution and 9 mL of methanol were mixed uniformly, aliquoted at 1 mL per tube, and stored at −20° C.
(§9) 3. Preparation of Compound Working Solution
(§10) Dilution step 1:10 μL of compound stock solution was added to 90 μL of DMSO=1 mM stock solution.
(§11) Dilution step 2: 2 μL of 1 mM stock solution was added to 1 mL of H2O/0.1%6 BSA buffer=[…] working solution.
(§12) Dilution step 3: 245 μL of the working solution was added to a 96-well compound plate and added with 5 μL of VIVID stock solution.
(§13) The 96-well compound plate was shaken on a shaker for 5 min.
(§14) 4. The STM in the JANUS in the computer was open to run the EXCEL file, and the JANUS program was operated and run by following the instructions in the EXCEL file.
(§15) 5. After the JANUS program was finished, acetonitrile/water 50:50 (V/V) was added to column 20 of the 384-well black plate, and blank control was added to column 21 of the 384-well black plate.
(§16) 6. the plate (420 nm-465 nm) was read on a microplate reader to determine the VIVID fluorescence intensity.
(§17) 7. After the plate was sealed, shaken and centrifuged, the sample plate was subjected to the LC/MS instrument for sample analysis.
(§18) A profile of the logarithmic value of the remaining rate of the drug in the incubation system versus the incubation time was plotted, and the slope k was obtained by linear regression. The intrinsic clearance rate in vivo (Clint, mL/min/g) value, the clearance rate in vivo (Cl, mL)/min), liver clearance (Clhep, mL/min) and metabolic bioavailability (% MF) were predicted according to the following equations: […]

[4] = Liver microsomal stability (rat); assay type: in vitro ADME
Method: as §1, §2, §3, §4, §5, §6, §7, §8, §9, §10, §11, §12, §13, §14, §15, §16, §17, §18

[5] = Liver microsomal stability (mouse); assay type: in vitro ADME
[6] = Oral pharmacokinetics in rats; assay type: in vivo; settings: male, SD, plasma, rat, intragastric, 3 mg/kg
Method: 1. Healthy male SD rats were used as test animals, EED226, […]-07 (3 mg/kg) were administered intragastrically, and the drug concentrations in rat plasma were determined by LC/MS/MS method at different time points after drug administration. The pharmacokinetic behavior of the compounds of the present invention in rats was studied, and the pharmacokinetic properties were evaluated. 2. The test animals were healthy adult male SD rats, with 3 rats in each group, purchased from Shanghai Xipuer-Bikai Laboratory Animal Limited Company. 3. Drug preparation: Compounds EED226, […] were dissolved in DMSO/0.5% HPMC (5/95, v/v) for preparation. The compound SL-ZYE-07 was dissolved in 0.5% HPMC (containing 0.5% Tween 80), vortexed, and sonicated to disperse the solid matter uniformly to obtain a pale white suspension. 4, Operation: EED226, […]-07 were administered to rats by intragastric administration (3 mg/kg), 45 μL of blood was taken through the femoral vein at 0.25, 0.5, 1, 2, 4, 8, 24 hour after administration, and centrifuged in a heparinized centrifuge tube for 5 min, and the plasma samples were separated for analysis. The contents of test compounds in rat plasma after intragastric administration of different compounds were determined by Liquid chromatography-mass spectrometry (LC-MS/MS).

SU-DHL-4 cells = assay: Growth inhibition of SU-DHL-4 cells in a long term (11 days), CellTiter-Glo; assay type: cell-based, Human; settings: Homo sapiens, 264 h; SU-DHL-4, 11 days; read-out: SU-DHL-4 (11 days) IC50

Chain of PRC2 enzyme (O75530 whole entry): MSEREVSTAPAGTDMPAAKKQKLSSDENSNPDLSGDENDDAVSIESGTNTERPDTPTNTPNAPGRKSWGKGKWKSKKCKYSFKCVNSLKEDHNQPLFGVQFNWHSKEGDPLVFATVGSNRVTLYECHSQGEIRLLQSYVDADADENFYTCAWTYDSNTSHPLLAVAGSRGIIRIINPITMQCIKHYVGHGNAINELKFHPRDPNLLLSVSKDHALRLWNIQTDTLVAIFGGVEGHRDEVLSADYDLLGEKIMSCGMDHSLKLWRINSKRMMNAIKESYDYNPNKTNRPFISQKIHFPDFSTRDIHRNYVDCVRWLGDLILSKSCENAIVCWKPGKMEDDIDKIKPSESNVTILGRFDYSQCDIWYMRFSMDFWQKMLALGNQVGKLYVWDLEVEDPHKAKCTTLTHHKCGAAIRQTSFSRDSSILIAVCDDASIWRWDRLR
Chain of PRC2 enzyme (Q15910 whole entry partner): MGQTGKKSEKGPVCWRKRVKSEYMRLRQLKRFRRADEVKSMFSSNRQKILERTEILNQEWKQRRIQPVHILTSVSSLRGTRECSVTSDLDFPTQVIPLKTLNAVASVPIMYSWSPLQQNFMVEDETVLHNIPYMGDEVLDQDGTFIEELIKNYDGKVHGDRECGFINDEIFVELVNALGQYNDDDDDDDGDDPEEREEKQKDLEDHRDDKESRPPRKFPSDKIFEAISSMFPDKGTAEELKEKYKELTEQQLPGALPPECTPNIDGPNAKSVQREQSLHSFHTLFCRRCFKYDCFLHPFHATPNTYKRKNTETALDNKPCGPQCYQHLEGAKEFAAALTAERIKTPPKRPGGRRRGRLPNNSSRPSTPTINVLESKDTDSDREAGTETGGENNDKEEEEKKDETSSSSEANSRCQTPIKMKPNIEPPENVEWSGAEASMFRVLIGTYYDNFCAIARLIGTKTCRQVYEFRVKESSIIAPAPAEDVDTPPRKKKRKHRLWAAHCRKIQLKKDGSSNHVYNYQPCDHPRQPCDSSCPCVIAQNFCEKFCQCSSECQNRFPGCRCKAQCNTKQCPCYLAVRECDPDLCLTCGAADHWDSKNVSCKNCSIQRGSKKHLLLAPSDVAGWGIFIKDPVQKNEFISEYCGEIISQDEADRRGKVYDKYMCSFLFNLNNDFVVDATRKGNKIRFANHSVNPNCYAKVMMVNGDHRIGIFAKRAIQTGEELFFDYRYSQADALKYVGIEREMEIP
Chain of PRC2 enzyme (Q15022 whole entry partner): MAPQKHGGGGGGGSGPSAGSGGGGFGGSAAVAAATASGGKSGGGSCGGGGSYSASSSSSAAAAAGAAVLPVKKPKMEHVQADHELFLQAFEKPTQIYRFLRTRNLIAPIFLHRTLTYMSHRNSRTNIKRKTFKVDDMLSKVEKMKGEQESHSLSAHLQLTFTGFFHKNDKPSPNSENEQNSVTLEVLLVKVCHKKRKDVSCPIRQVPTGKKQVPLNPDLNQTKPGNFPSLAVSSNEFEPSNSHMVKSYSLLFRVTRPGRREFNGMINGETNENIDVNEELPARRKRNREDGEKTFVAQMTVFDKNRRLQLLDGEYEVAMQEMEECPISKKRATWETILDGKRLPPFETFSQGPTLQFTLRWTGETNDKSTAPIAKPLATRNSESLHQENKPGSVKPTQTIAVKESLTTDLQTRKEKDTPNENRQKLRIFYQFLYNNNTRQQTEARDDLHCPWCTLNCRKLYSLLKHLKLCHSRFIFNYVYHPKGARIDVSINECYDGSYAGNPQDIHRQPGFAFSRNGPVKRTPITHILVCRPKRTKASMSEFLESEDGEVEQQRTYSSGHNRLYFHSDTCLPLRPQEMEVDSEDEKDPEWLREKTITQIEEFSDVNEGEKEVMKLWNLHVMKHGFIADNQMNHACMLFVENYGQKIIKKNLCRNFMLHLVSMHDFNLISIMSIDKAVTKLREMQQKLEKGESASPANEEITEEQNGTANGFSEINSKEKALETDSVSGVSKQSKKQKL

| Structure (SMILES) | IC50 (PRC2 enzyme) [nM] | IC50 (Karpas-422 cells) [nM] | IC50 (Pfeiffer cells [1]) [nM] | IC50 (Pfeiffer cells [2]) [nM] | IC50 (SU-DHL-4 cells) [nM] | other results |
| --- | --- | --- | --- | --- | --- | --- |
| Fc1ccc2c(c1CNc1ncc(C3CCOCC3)c3nncn13)CCO2 [E-Y47] | 13 | 18 |  | 6 |  | Clearance rate in vivo Clint In Vivo Extpl ([3]; human liver microsomes): 519 mL/min; Intrinsic clearance rate in vivo Clint In Vitro ([3]; human liver microsomes): 6.79 mL/min/gprot; Liver clearance rate Clint Hep In Vivo Extpl ([3]; human liver microsomes): 386 mL/min; half-life ([3]; human, liver microsomes, pH 7.4, human liver microsomes, read-out: Half life T-half): 5.15 h; bioavailability ([3]; human, liver microsomes, pH 7.4, human liver microsomes, read-out: Metabolic bioavailability MF %): 74.3%; Clearance rate in vivo Clint In Vivo Extpl ([4]; rat liver microsomes): 6.79 mL/min; Intrinsic clearance rate in vivo Clint In Vitro ([4]; rat liver microsomes): 15.1 mL/min/gprot; Liver clearance rate Clint Hep In Vivo Extpl ([4]; rat liver microsomes): 5.07 mL/min; Metabolic bioavailability MF % ([4]; rat liver microsomes): 74.7%; half-life ([4]; rat, liver microsomes, pH 7.4, rat liver microsomes, read-out: Half life T-half): 2.32 h; Clearance rate in vivo Clint In Vivo Extpl ([5]; mouse liver microsomes): 1.17 mL/min; Intrinsic clearance rate in vivo Clint In Vitro ([5]; mouse liver microsomes): 17.3 mL/min/gprot; Liver clearance rate Clint Hep In Vivo Extpl ([5]; mouse liver microsomes): 0.841 mL/min; Metabolic bioavailability MF % ([5]; mouse liver microsomes): 72.0%; half-life ([5]; mouse, liver microsomes, pH 7.4, mouse liver microsomes, read-out: Half life T-half): 2.02 h; AUC(0-t) [6]: 7890 ± 2430 ng·h/mL; AUC(0-inf) ([6]; extrapolated to infinity, read-out: AUCINF_obs): 7900 ± 2440 ng·h/mL; MRT inf ([6]; read-out: Average residence time MRTINF_obs): 4.92 ± 0.369 h; half-life ([6]; read-out: Half life T1/2 (converted)): 2.56 ± 0.302 h; Cmax ([6]; read-out: Peak concentration Cmax): 1300 ± 628 ng/mL |
| CN1CC=C(c2cnc(NCc3c(F)ccc4c3CCO4)n3cnnc23)CC1 [SL-E23] | 4.7 | 2.8 | 7.7 | 2 |  | Clearance rate in vivo Clint In Vivo Extpl ([3]; human, microsomes): 807 mL/min; Intrinsic clearance rate in vivo Clint In Vitro ([3]; human, microsomes): 10.5 mL/min/gprot; Liver clearance rate Clint Hep In Vivo Extpl ([3]; human, microsomes): 525 mL/min; half-life ([3]; human, microsomes, pH 7.4, Half life T-half): 3.32 h; bioavailability ([3]; human, pH 7.4, Metabolic bioavailability MF %): 65%; Clearance rate in vivo Clint In Vivo Extpl ([4]; rat, microsomes): 15.8 mL/min; Intrinsic clearance rate in vivo Clint In Vitro ([4]; rat, microsomes): 35.0 mL/min/gprot; Liver clearance rate Clint Hep In Vivo Extpl ([4]; rat, microsomes): 8.81 mL/min; half-life ([4]; rat, microsomes, pH 7.4, Half life T-half): 1 h; Metabolic bioavailability MF % ([4]; rat, pH 7.4): 55.9%; Clearance rate in vivo Clint In Vivo Extpl ([5]; mouse, microsomes): 3.67 mL/min; Intrinsic clearance rate in vivo Clint In Vitro ([5]; mouse, microsomes): 54.4 mL/min/gprot; Liver clearance rate Clint Hep In Vivo Extpl ([5]; mouse, microsomes): 1.65 mL/min; half-life ([5]; mouse, microsomes, pH 7.4, Half life T-half): 0.643 h; Metabolic bioavailability MF % ([5]; mouse, pH 7.4): 45.0% |
| CC1C=C(c2cnc(NCc3c(F)ccc4c3CCO4)n3cnnc23)CC(C)O1 (stereo not shown) [SL-ZYE-24] | 8.3 |  |  | 6 |  |  |
| Fc1ccc2c(c1CNc1ncc(C3=CCOc4ccccc43)c3nncn13)CCO2 [SL-ZYE-28] | 22.5 |  |  | 10 |  |  |
| CC1(C)CC(c2cnc(NCc3c(F)ccc4c3CCO4)n3cnnc23)=CCO1 [SL-ZYE-119] | 23.3 |  | 8.1 | 4 |  |  |
| CC(C)S(=O)(=O)N1CC=C(c2cnc(NCc3c(F)ccc4c3CCO4)n3cnnc23)CC1 [SL-ZYE-145] | 8.9 | 3.2 | 1.7 | 1 | 1 |  |
| O=C(C1CC1)N1CC=C(c2cnc(NCc3c(F)ccc4c3CCO4)n3cnnc23)CC1 [SL-ZYE-162] | 5.2 | 2.8 | 2.7 | 1.2 | 3.1 |  |
| CC1CC(c2cnc(NCc3c(F)ccc4c3CCO4)n3cnnc23)=CCO1 (stereo not shown) [SL-ZYE-196] | 14.1 | 19.9 | 7 | 4 | 9 to 50 |  |

More lines, main results first:

| IC50 (PRC2 enzyme) [nM] | IC50 (Karpas-422 cells) [nM] | IC50 (Pfeiffer cells [1]) [nM] | IC50 (Pfeiffer cells [2]) [nM] | IC50 (SU-DHL-4 cells) [nM] | Structure (SMILES) | other results |
| --- | --- | --- | --- | --- | --- | --- |
| 4.8 | 10 | 3.6 | 1.5 |  | Cc1cc(C(=O)N2CC=C(c3cnc(NCc4c(F)ccc5c4CCO5)n4cnnc34)CC2)n(C)n1 [E-Y42] |  |
| 3.9 | 3.1 | 5.1 | 3 | 3 | CN1CCC(c2cnc(NCc3c(F)ccc4c3CCO4)n3cnnc23)=CC1=O [SL-E24] |  |
| 4.5 |  |  | 3.2 |  | O=S1(=O)CC=C(c2cnc(NCc3c(F)ccc4c3CCO4)n3cnnc23)CC1 [SL-ZYE-09] |  |
| 3.5 | 4 | 1.8 | 0.8 | 3 | CCS(=O)(=O)N1CC=C(c2cnc(NCc3c(F)ccc4c3CCO4)n3cnnc23)CC1 [SL-ZYE-144] |  |
| 2.9 | 4 | 4.5 | 3 | 4 | O=S(=O)(C1CC1)N1CC=C(c2cnc(NCc3c(F)ccc4c3CCO4)n3cnnc23)CC1 [SL-ZYE-146] |  |
